Bounds are passed on as bounds.

One assay addresses T1, recombinant human liver glycogen phosphorylase (Homo sapiens, UniProt P06737).
T1 construct: made in house; host or cells: Sf9 insect cells (crude homogenate, diluted, used as the enzyme solution)
T1 sequence (P06737 1-847): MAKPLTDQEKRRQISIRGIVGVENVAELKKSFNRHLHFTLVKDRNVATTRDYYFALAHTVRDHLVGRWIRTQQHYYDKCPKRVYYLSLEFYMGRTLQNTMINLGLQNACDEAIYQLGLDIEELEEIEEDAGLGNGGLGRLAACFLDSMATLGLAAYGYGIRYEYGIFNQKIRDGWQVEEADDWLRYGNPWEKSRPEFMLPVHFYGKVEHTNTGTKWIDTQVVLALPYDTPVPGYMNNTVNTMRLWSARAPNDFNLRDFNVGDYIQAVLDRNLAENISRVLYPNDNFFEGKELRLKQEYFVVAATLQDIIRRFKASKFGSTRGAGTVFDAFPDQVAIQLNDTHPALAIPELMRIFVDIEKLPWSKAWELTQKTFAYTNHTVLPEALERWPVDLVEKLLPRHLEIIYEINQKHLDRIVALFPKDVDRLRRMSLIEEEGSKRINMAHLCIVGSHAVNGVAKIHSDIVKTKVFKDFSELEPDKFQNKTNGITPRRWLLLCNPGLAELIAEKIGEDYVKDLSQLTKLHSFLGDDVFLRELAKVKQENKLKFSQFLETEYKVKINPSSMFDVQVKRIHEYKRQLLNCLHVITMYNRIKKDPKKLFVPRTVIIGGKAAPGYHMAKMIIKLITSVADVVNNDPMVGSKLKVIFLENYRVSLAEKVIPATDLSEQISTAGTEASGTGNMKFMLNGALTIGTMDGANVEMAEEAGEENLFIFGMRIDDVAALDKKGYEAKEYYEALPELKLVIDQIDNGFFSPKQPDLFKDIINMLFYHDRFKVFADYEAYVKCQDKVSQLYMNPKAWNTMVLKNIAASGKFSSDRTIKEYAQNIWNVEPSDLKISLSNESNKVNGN
Nature of the assay: Measuring liver glycogen phosphorylase activity (forward reaction system, NADPH absorbance at 340 nm). Format: biochemical. The settings on record: compound concentration 100 nmol (in parentheses). The procedure, abridged:
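Sf9 homogenate expressing the enzyme, in pH 6.8 BES/EDTA, with glycogen and phosphate substrate plus glucose, coupled via phosphoglucomutase/G6PDH to NADPH formation. A340 change over 75 min at room temperature, blank-corrected; IC50 linearly interpolated between the two concentrations bracketing 50% inhibition versus 1% DMSO control.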
For the compound `O=C(Nc1cccc2cnccc12)c1cc(NC(=O)c2cc(F)c(F)cc2Cl)[nH]n1` [Example 5-38], the “inhibition rate (%) at a certain concentration” value is 15.2% (100).

The same assay, now with this note: compound concentration 100 nmol (in parentheses); read-out: inhibition rate (%) at a certain concentration.
Regarding `O=C(NCCc1ccccn1)c1cc(NC(=O)c2cc(F)c(F)cc2Cl)[nH]n1` [Example 1-139], the inhibition at 0.1 µM was 22.9%.

With `O=C(Nc1cccc2cnccc12)c1cc(NC(=O)c2cc(F)c(F)cc2Cl)[nH]n1` [Example 1-147], the inhibition at 0.1 µM was 9.6%.

`O=C(NCCc1ccncc1)c1cc(NC(=O)c2cc(F)c(F)cc2Cl)[nH]n1` [Example 1-141]: the inhibition at 0.1 µM came out at 31.4%.

`C[C@@H](NC(=O)c1cc(NC(=O)c2cc(F)c(F)cc2Cl)[nH]n1)c1ccccc1` [Example 2-20]: the inhibition at 0.1 µM was determined as 43.1%.

The same assay, now with this note: compound concentration 300 nmol (in parentheses); read-out: inhibition rate (%) at a certain concentration.
For `CCN(CCN(C)C)C(=O)c1cc(NC(=O)c2cc(F)c(F)cc2Cl)[nH]n1` [Example 3-43], the inhibition at 0.3 µM is 13.4%.

Take `O=C(NCc1ccccc1)c1cc(NC(=O)c2cc(Cl)ccc2F)[nH]n1` [Example 4-20]: the inhibition at 0.3 µM came out at 3.3%.

Consider `COCCN(CCOC)C(=O)c1cc(NC(=O)c2cc(F)c(F)cc2Cl)[nH]n1` [Example 1-94], for which the inhibition at 0.3 µM came to 36.5%.

As for `Cc1ccc(Cl)cc1C(=O)Nc1cc(C(=O)NCc2ccccc2)n[nH]1` [Example 4-13], the inhibition at 0.3 µM was 38%.

As for `Cc1ccc(C(=O)Nc2cc(C(=O)NCc3ccccc3)n[nH]2)c(Cl)n1` [Example 4-43], the inhibition at 0.3 µM came to 3.8%.

On to `O=C(NCc1ccccc1)c1cc(NC(=O)c2cc(F)ccc2C(F)(F)F)[nH]n1` [Example 4-33], for which the inhibition at 0.3 µM is 15.2%.

On to `CCCCN(C(=O)c1cc(NC(=O)c2cc(F)c(F)cc2Cl)[nH]n1)c1ccc(C(=O)OCC)cc1` [Example 4-40], for which the inhibition at 0.3 µM is 3.6%.

Still in this assay, the particulars now being: compound concentration 1000 nmol (in parentheses); read-out: inhibition rate (%) at a certain concentration.
In the case of `COC(=O)c1ccc(N(C)C(=O)c2cc(NC(=O)c3cc(F)c(F)cc3Cl)[nH]n2)cc1` [Example 4-1, methyl 5-(2-chloro-4,5-difluorobenzoylamino)-1H-pyrazole-3-carbocylic acid (4-methoxycarbonyl-phenyl)-methyl-amide], the inhibition at 1 µM was determined as 13.8%.

For the compound `O=C(Nc1cc(C(=O)N2CCCCC2)n[nH]1)c1cc(F)c(F)cc1Cl` [Example 3-5], the inhibition at 1 µM worked out at 41.1%.

Take `COC(=O)[C@@H](NC(=O)c1cc(NC(=O)c2cc(F)c(F)cc2Cl)[nH]n1)c1ccccc1` [Example 3-13]: the inhibition at 1 µM amounted to 25.5%.

With `O=C(Nc1cc(C(=O)N2CCC(C(=O)O)CC2)n[nH]1)c1cc(F)c(F)cc1Cl` [Example 3-8], the inhibition at 1 µM was 11.7%.

Still in this assay, the particulars now being: enzyme inhibitory activity with respect to liver glycogen phosphorylase; class symbols.
As usually defined, the IC50 is the concentration at which inhibition is half-maximal. For the compound `Cc1nn(C)c(C)c1CNC(=O)c1cc(NC(=O)c2cc(F)c(F)cc2Cl)[nH]n1` [Example 1-55], the IC50 is under 100 nM.

On to `O=C(NCc1cccnc1OCC(F)(F)F)c1cc(NC(=O)c2cc(F)c(F)cc2Cl)[nH]n1` [Example 1-32], for which the IC50 is under 100 nM.

As to `CCCCN(C(=O)c1cc(NC(=O)c2cc(F)c(F)cc2Cl)[nH]n1)C1CCCCC1` [Example 1-89], the IC50 was under 100 nM.

For the compound `O=C(NCc1csc(N2CCOCC2)n1)c1cc(NC(=O)c2cc(F)c(F)cc2Cl)[nH]n1` [Example 1-54], the IC50 was under 100 nM.

In the case of `CC(C)(C)OC(=O)NCc1ccnc(CNC(=O)c2cc(NC(=O)c3cc(F)c(F)cc3Cl)[nH]n2)c1` [Example 1-62], the half-inhibitory concentration (IC50) is under 100 nM.

`CCN(CC)C(=O)c1cc(NC(=O)c2cc(F)c(F)cc2Cl)[nH]n1` [Example 1-4]: the IC50 is under 100 nM.

On to `O=C(NCCN1CCOCC1)c1ccc(CNC(=O)c2cc(NC(=O)c3cc(F)c(F)cc3Cl)[nH]n2)cc1` [Example 5-4], for which the IC50 was under 100 nM.

For `O=C(NCc1cccc(Cl)c1)c1cc(NC(=O)c2cc(F)c(F)cc2Cl)[nH]n1` [Example 3-37], the IC50 is under 100 nM.

In the case of `O=C(NCc1cc(Br)c(Br)s1)c1cc(NC(=O)c2cc(F)c(F)cc2Cl)[nH]n1` [Example 1-155], the IC50 is under 100 nM.

`NC(=O)c1ccc(CNC(=O)c2cc(NC(=O)c3cc(F)c(F)cc3Cl)[nH]n2)cc1` [Example 1-122]: the IC50 is under 100 nM.

In the case of `O=C(Nc1cc(C(=O)N2CCCc3ccccc32)n[nH]1)c1cc(F)c(F)cc1Cl` [Example 3-15], the IC50 was 100 to 300 nM.

With `CCCCN(C(=O)c1cc(NC(=O)c2cc(F)c(F)cc2Cl)[nH]n1)C1CCN(C(C)=O)CC1` [Example 1-110], the IC50 was under 100 nM.

As to `COc1ccc(CNC(=O)c2cc(NC(=O)c3cc(F)c(F)cc3Cl)[nH]n2)cc1OC` [Example 1-17], the IC50 is under 100 nM.

For `CC(=O)OCCN(CCNC(=O)c1ccc(CNC(=O)c2cc(NC(=O)c3cc(F)c(F)cc3Cl)[nH]n2)cc1)CCOC(C)=O` [Example 1-47], the IC50 is under 100 nM.

Regarding `CCCCN(C(=O)c1cc(NC(=O)c2cc(F)c(F)cc2Cl)[nH]n1)c1ccccc1` [Example 3-17], the IC50 is under 100 nM.

With `COc1cscc1CNC(=O)c1cc(NC(=O)c2cc(F)c(F)cc2Cl)[nH]n1` [Example 1-164], the IC50 was under 100 nM.

On to `CCc1ccc(CNC(=O)c2cc(NC(=O)c3cc(F)c(F)cc3Cl)[nH]n2)cc1` [Example 1-34], for which the IC50 is under 100 nM.

`O=C(O)CCN(C(=O)c1cc(NC(=O)c2cc(F)c(F)cc2Cl)[nH]n1)c1ccccc1` [Example 4-27]: the half-inhibitory concentration (IC50) fell in the range of 100 to 300 nM.

As for `O=C(O)COc1ccccc1CNC(=O)c1cc(NC(=O)c2cc(F)c(F)cc2Cl)[nH]n1` [Example 3-48], the IC50 is under 100 nM.

As for `CCCCN(Cc1ccccc1)C(=O)c1cc(NC(=O)c2cc(F)c(F)cc2Cl)[nH]n1` [Example 1-85], the concentration for half-maximal inhibition (IC50) was under 100 nM.

With `O=C(Nc1cc(C(=O)N(Cc2ccccc2)Cc2ccccc2)n[nH]1)c1cc(F)c(F)cc1Cl` [Example 1-74], the IC50 is 100 to 300 nM.

The assay is the same for the next values; noted with them: figure in brackets (100); read-out: IC50: % value given with (100).
`CCOC(=O)c1csc(N(CC)C(=O)c2cc(NC(=O)c3cc(F)c(F)cc3Cl)[nH]n2)n1` [Example 6-18]: the inhibition at 0.1 µM was 6.8%.

On to `O=C(NCc1cccnc1)c1cc(NC(=O)c2sc(Cl)c(Cl)c2Cl)[nH]n1` [Example 7-14], for which the inhibition at 0.1 µM was found to be 4.6%.

The assay is the same for the next values; noted with them: figure in brackets (300); read-out: IC50 column: % value printed with (300).
For `CN(C(=O)c1cc(NC(=O)c2cc(F)c(N=[N+]=[N-])cc2Cl)[nH]n1)c1ccc(C#N)cc1` [Example 6-9], the inhibition at 0.3 µM is 5.5%.

As to `CN(C(=O)c1cc(NC(=O)c2cc(F)c(F)cc2Cl)[nH]n1)c1ccc(C#N)cc1` [Example 6-7], the inhibition at 0.3 µM is 12.9%.

Consider `O=C(Nc1cc(C(=O)NCc2cccnc2)n[nH]1)c1ccccc1` [Example 7-8], for which the inhibition at 0.3 µM was determined as 6.8%.

Still in this assay, the particulars now being: human liver glycogen phosphorylase; class symbol.
On to `CN(C(=O)c1cc(NC(=O)c2cc(F)c(N=[N+]=[N-])cc2Cl)[nH]n1)c1ccc(-c2nnn[nH]2)cc1` [Example 6-10], for which the 50% inhibitory concentration (IC50) is 100 to 300 nM.

As for `CCN(C=Nc1ccc(CNC(=O)c2cc(NC(=O)c3cc(F)c(F)cc3Cl)[nH]n2)cc1)CC` [Example 6-29], the IC50 was under 100 nM.

Turning to `O=C(Nc1cc(C(=O)N2C=NC3CCCCC3C2)n[nH]1)c1cc(F)c(F)cc1Cl` (stereo not drawn) [Example 6-43], the IC50 is under 100 nM.

Turning to `CC(=Nc1ccc(CNC(=O)c2cc(NC(=O)c3cc(F)c(F)cc3Cl)[nH]n2)cc1)N(C)C` [Example 6-26], the IC50 is under 100 nM.

Consider `CN(C(=O)c1cc(NC(=O)c2cc(F)c(F)cc2Cl)[nH]n1)c1ccc(C(=O)NS(C)(=O)=O)cc1` [Example 6-5], for which the IC50 was under 100 nM.

Consider `Cc1cc(F)c(F)cc1C(=O)Nc1cc(C(=O)N(C)c2ccc(-c3nnn[nH]3)cc2)n[nH]1` [Example 7-2], for which the IC50 is under 100 nM.
